Tests used:
C2C12 cells = assay: Cell chirality (alignment) on micropatterned rings, drug treatment, C2C12; format: cell-based, mouse; details: for CCW: counter-clockwise alignment / CW: clockwise alignment / N/S: not significantly biased to CW or CCW: C2C12 on ring patterns, count of rings; for effect on chirality of C2C12 cells: low concentrations of the actin treadmilling inhibitors; for effect on cell chirality / effect on left-right asymmetry: C2C12; for effect on cell chirality: inhibitors of tubulin dynamics at concentrations below those resulting in cell apoptosis; for effect on left-right asymmetry: drugs that affect the actomyosin motor, 0.2-10 mM Y-27632, 1-20 mM ML-7, 0.5-10 mM Blebbistatin
Description: (§1) Cells were maintained in tissue flasks with culture media specified in TABLE 2. After reaching 70% confluency, cells were trypsinized and seeded onto protein-coated patterned surfaces. Once the cells attached, extra cells were washed off with fresh medium. At this time drugs were added into the culture medium if necessary. Phase contrast images were taken after overnight incubation at 37° C. and 5% CO2 when cells reached confluency on the ring patterns.
(§2) To examine the role of actin in left-right (LR) asymmetry, cells were tested with 20-500 nM Latrunculin A, 0.05-1.0 μg/ml Cytochalasin D, and 1-100 nM Jasplakinolide. Latrunculin A inhibits actin polymerization by forming a 1:1 molar complex with G-actin, thereby inhibiting its ability to polymerize into F-actin (M. Coue, S. L. Brenner, I. Spector, E. D. Korn, FEBS Lett 213, 316 (Mar. 23, 1987)). Cytochalasin D inhibits actin polymerization by binding to the growing ends of F-actin chains and thus preventing the attachment and addition of G-actin monomers (J. A. Cooper, J Cell Biol 105, 1473 (October, 1987)). Jasplakinolide is known to bind to and stabilize actin filaments in vitro (M. R. Bubb, I. Spector, B. B. Beyer, K. M. Fosen, J Biol Chem 275, 5163 (Feb. 18, 2000)).
(§3) To examine the role of microtubules in LR asymmetry, 0.2-2 μM Nocodazole, and 0.3-30 nM Taxol were used. Nocodazole suppresses microtubule dynamics by destabilizing and disassembling microtubules (J. A. Cooper, J Cell Biol 105, 1473 (October, 1987)). Taxol inhibits the microtubule depolymerization and stabilizes microtubules (W. B. Derry, L. Wilson, M. A. Jordan, Biochemistry 34, 2203 (Feb. 21, 1995)).
To examine the role of the actomyosin motor, cells were tested with […], […], and 0.5-10 […]. Y-27632 works as a selective inhibitor to prevent the phosphorylation of the myosin regulatory light chain (T. Ishizaki et al., Mol Pharmacol 57, 976 (May, 2000)). ML-7 acts as a selective inhibitor of the myosin light chain kinase (M. Isemura, T. Mita, K. Satoh, K. Narumi, M. Motomiya, Cell Biol Int Rep 15, 965 (October, 1991)). Blebbistatin forms a low actin affinity complex through binding to myosin heads, causing the inhibition of nonmuscle myosin II ATPase activity (M. Kovacs, J. Toth, C. Hetenyi, A. Malnasi-Csizmadia, J. R. Sellers, J Biol Chem 279, 35557 (Aug. 20, 2004)).
(§4) High-resolution phase contrast images of live patterned cells were taken at a resolution of ˜0.645 μm/pixel, and analyzed using a custom-written code in MatLab (MathWorks, Natick, Mass.), based on the automated detection of intensity gradient and circular statistics (W. J. Karlon et al., Ann Biomed Eng 27, 712 (November-December, 1999)). In this algorithm, the intensity gradient was determined pixel by pixel with a Gaussian differential filter. In each sub-region of the image, the dominant local direction was determined using an accumulator scheme, in which the orientation of each pixel follows a von Mises distribution, a circular analogue of the linear normal distribution. Subsequently, the orientation in each sub-region was converted into an angle bias based on its deviation from the circumferential direction (see e.g., FIG. 2C). Mean angle and standard deviation of LR asymmetry were calculated for all sub-regions, using circular statistics (N. I. Fish, Statistical Analysis of Circular Data. (Cambridge University Press, Cambridge, UK, 1993)). […] The sub-region size was therefore set to 20 by 20 pixels (i.e., 13 by 13 μm).
(§5) Cell chirality on ring patterns (i.e., clockwise or counterclockwise alignment) was determined from calculated biased angles in local regions with one sample test for the mean angle, analogous to the one sample t-test in linear statistics (N. I. Fish, Statistical Analysis of Circular Data. (Cambridge University Press, Cambridge, UK, 1993)).

hUVEC cells = assay: Cell chirality (alignment) on micropatterned rings, drug treatment, hUVEC; format: cell-based, human; details: hUVEC on ring patterns, count of rings
Description: as §1, §2, §3, §4, §5

C=C1[C@@H](C)[C@H]2[C@H](Cc3ccccc3)NC(=O)[C@]23[C@H](OC(C)=O)/C=C/[C@@](C)(O)C(=O)[C@@H](C)C/C=C/[C@H]3[C@@H]1O [Cytochalasin D]
CCW: counter-clockwise alignment (C2C12 cells; drug 0.05 μg/mL): 8 | CW: clockwise alignment (C2C12 cells; drug 0.05 μg/mL): 9 | N/S: not significantly biased to CW or CCW (C2C12 cells; drug 0.05 μg/mL): 6 | CCW: counter-clockwise alignment (C2C12 cells; drug 0.1 μg/mL): 3 | CW: clockwise alignment (C2C12 cells; drug 0.1 μg/mL): 7 | N/S: not significantly biased to CW or CCW (C2C12 cells; drug 0.1 μg/mL): 10 | CCW: counter-clockwise alignment (C2C12 cells; drug 0.2 μg/mL): 5 | CW: clockwise alignment (C2C12 cells; drug 0.2 μg/mL): 21 | N/S: not significantly biased to CW or CCW (C2C12 cells; drug 0.2 μg/mL): 23 | CCW: counter-clockwise alignment (C2C12 cells; drug 0.5 μg/mL): 0 | CW: clockwise alignment (C2C12 cells; drug 0.5 μg/mL): 10 | N/S: not significantly biased to CW or CCW (C2C12 cells; drug 0.5 μg/mL): 14 | CCW: counter-clockwise alignment (C2C12 cells; drug 1 μg/mL): 1 | CW: clockwise alignment (C2C12 cells; drug 1 μg/mL): 8 | N/S: not significantly biased to CW or CCW (C2C12 cells; drug 1 μg/mL): 20 | effect on chirality of C2C12 cells (C2C12 cells): reversed the chirality of C2C12 cells from CCW into CW | CCW: counter-clockwise alignment (hUVEC cells; drug 0.1 μg/mL): 0 | CW: clockwise alignment (hUVEC cells; drug 0.1 μg/mL): 8 | N/S: not significantly biased to CW or CCW (hUVEC cells; drug 0.1 μg/mL): 12 | CCW: counter-clockwise alignment (hUVEC cells; drug 0.2 μg/mL): 0 | CW: clockwise alignment (hUVEC cells; drug 0.2 μg/mL): 10 | N/S: not significantly biased to CW or CCW (hUVEC cells; drug 0.2 μg/mL): 22 | CCW: counter-clockwise alignment (hUVEC cells; drug 0.5 μg/mL): 1 | CW: clockwise alignment (hUVEC cells; drug 0.5 μg/mL): 0 | N/S: not significantly biased to CW or CCW (hUVEC cells; drug 0.5 μg/mL): 6

C/C1=C\[C@H](C)C[C@H](C)OC(=O)C[C@H](c2ccc(O)cc2)NC(=O)[C@@H](Cc2c(Br)[nH]c3ccccc23)N(C)C(=O)[C@H](C)NC(=O)[C@@H](C)C1 [Jasplakinolide]
CCW: counter-clockwise alignment (C2C12 cells; drug 1 nM): 34 | CW: clockwise alignment (C2C12 cells; drug 1 nM): 2 | N/S: not significantly biased to CW or CCW (C2C12 cells; drug 1 nM): 10 | CCW: counter-clockwise alignment (C2C12 cells; drug 3 nM): 18 | CW: clockwise alignment (C2C12 cells; drug 3 nM): 3 | N/S: not significantly biased to CW or CCW (C2C12 cells; drug 3 nM): 4 | CCW: counter-clockwise alignment (C2C12 cells; drug 10 nM): 14 | CW: clockwise alignment (C2C12 cells; drug 10 nM): 7 | N/S: not significantly biased to CW or CCW (C2C12 cells; drug 10 nM): 5 | CCW: counter-clockwise alignment (C2C12 cells; drug 30 nM): 0 | CW: clockwise alignment (C2C12 cells; drug 30 nM): 18 | N/S: not significantly biased to CW or CCW (C2C12 cells; drug 30 nM): 4 | CCW: counter-clockwise alignment (C2C12 cells; drug 100 nM): 0 | CW: clockwise alignment (C2C12 cells; drug 100 nM): 7 | N/S: not significantly biased to CW or CCW (C2C12 cells; drug 100 nM): 9 | effect on chirality of C2C12 cells (C2C12 cells): reversed the chirality of C2C12 cells from CCW into CW | CCW: counter-clockwise alignment (hUVEC cells; drug 1 nM): 1 | CW: clockwise alignment (hUVEC cells; drug 1 nM): 32 | N/S: not significantly biased to CW or CCW (hUVEC cells; drug 1 nM): 1 | CCW: counter-clockwise alignment (hUVEC cells; drug 3 nM): 2 | CW: clockwise alignment (hUVEC cells; drug 3 nM): 22 | N/S: not significantly biased to CW or CCW (hUVEC cells; drug 3 nM): 5 | CCW: counter-clockwise alignment (hUVEC cells; drug 10 nM): 5 | CW: clockwise alignment (hUVEC cells; drug 10 nM): 22 | N/S: not significantly biased to CW or CCW (hUVEC cells; drug 10 nM): 10 | CCW: counter-clockwise alignment (hUVEC cells; drug 30 nM): 0 | CW: clockwise alignment (hUVEC cells; drug 30 nM): 5 | N/S: not significantly biased to CW or CCW (hUVEC cells; drug 30 nM): 4 | CCW: counter-clockwise alignment (hUVEC cells; drug 100 nM): 0 | CW: clockwise alignment (hUVEC cells; drug 100 nM): 1 | N/S: not significantly biased to CW or CCW (hUVEC cells; drug 100 nM): 5

CC(=O)O[C@H]1C(=O)[C@@]2(C)[C@H]([C@H](OC(=O)c3ccccc3)[C@]3(O)C[C@H](OC(=O)[C@H](O)[C@@H](NC(=O)c4ccccc4)c4ccccc4)C(C)=C1C3(C)C)[C@]1(OC(C)=O)CO[C@@H]1C[C@@H]2O [Taxol]
effect on cell chirality (C2C12 cells): did not change cell chirality | CCW: counter-clockwise alignment (C2C12 cells; drug 0.3 nM): 24 | CW: clockwise alignment (C2C12 cells; drug 0.3 nM): 1 | N/S: not significantly biased to CW or CCW (C2C12 cells; drug 0.3 nM): 3 | CCW: counter-clockwise alignment (C2C12 cells; drug 1 nM): 20 | CW: clockwise alignment (C2C12 cells; drug 1 nM): 1 | N/S: not significantly biased to CW or CCW (C2C12 cells; drug 1 nM): 6 | CCW: counter-clockwise alignment (C2C12 cells; drug 3 nM): 31 | CW: clockwise alignment (C2C12 cells; drug 3 nM): 2 | N/S: not significantly biased to CW or CCW (C2C12 cells; drug 3 nM): 9 | CCW: counter-clockwise alignment (C2C12 cells; drug 10 nM): 17 | CW: clockwise alignment (C2C12 cells; drug 10 nM): 2 | N/S: not significantly biased to CW or CCW (C2C12 cells; drug 10 nM): 8 | CCW: counter-clockwise alignment (C2C12 cells; drug 30 nM): 16 | CW: clockwise alignment (C2C12 cells; drug 30 nM): 2 | N/S: not significantly biased to CW or CCW (C2C12 cells; drug 30 nM): 13 | CCW: counter-clockwise alignment (hUVEC cells; drug 0.3 nM): 0 | CW: clockwise alignment (hUVEC cells; drug 0.3 nM): 8 | N/S: not significantly biased to CW or CCW (hUVEC cells; drug 0.3 nM): 0 | CCW: counter-clockwise alignment (hUVEC cells; drug 1 nM): 1 | CW: clockwise alignment (hUVEC cells; drug 1 nM): 34 | N/S: not significantly biased to CW or CCW (hUVEC cells; drug 1 nM): 4 | CCW: counter-clockwise alignment (hUVEC cells; drug 3 nM): 2 | CW: clockwise alignment (hUVEC cells; drug 3 nM): 7 | N/S: not significantly biased to CW or CCW (hUVEC cells; drug 3 nM): 9 | CCW: counter-clockwise alignment (hUVEC cells; drug 10 nM): 5 | CW: clockwise alignment (hUVEC cells; drug 10 nM): 10 | N/S: not significantly biased to CW or CCW (hUVEC cells; drug 10 nM): 11 | CCW: counter-clockwise alignment (hUVEC cells; drug 30 nM): 2 | CW: clockwise alignment (hUVEC cells; drug 30 nM): 4 | N/S: not significantly biased to CW or CCW (hUVEC cells; drug 30 nM): 7

COC(=O)Nc1nc2ccc(C(=O)c3cccs3)cc2[nH]1 [Nocodazole]
effect on cell chirality (C2C12 cells): did not change cell chirality | CCW: counter-clockwise alignment (C2C12 cells; drug 200 nM): 57 | CW: clockwise alignment (C2C12 cells; drug 200 nM): 0 | N/S: not significantly biased to CW or CCW (C2C12 cells; drug 200 nM): 18 | CCW: counter-clockwise alignment (C2C12 cells; drug 500 nM): 35 | CW: clockwise alignment (C2C12 cells; drug 500 nM): 0 | N/S: not significantly biased to CW or CCW (C2C12 cells; drug 500 nM): 58 | CCW: counter-clockwise alignment (C2C12 cells; drug 1 μM): 18 | CW: clockwise alignment (C2C12 cells; drug 1 μM): 0 | N/S: not significantly biased to CW or CCW (C2C12 cells; drug 1 μM): 21 | CCW: counter-clockwise alignment (C2C12 cells; drug 2 μM): 1 | CW: clockwise alignment (C2C12 cells; drug 2 μM): 0 | N/S: not significantly biased to CW or CCW (C2C12 cells; drug 2 μM): 6 | CCW: counter-clockwise alignment (hUVEC cells; drug 200 nM): 3 | CW: clockwise alignment (hUVEC cells; drug 200 nM): 25 | N/S: not significantly biased to CW or CCW (hUVEC cells; drug 200 nM): 76 | CCW: counter-clockwise alignment (hUVEC cells; drug 500 nM): 2 | CW: clockwise alignment (hUVEC cells; drug 500 nM): 14 | N/S: not significantly biased to CW or CCW (hUVEC cells; drug 500 nM): 27 | CCW: counter-clockwise alignment (hUVEC cells; drug 1 μm): 0 | CW: clockwise alignment (hUVEC cells; drug 1 μm): 3 | N/S: not significantly biased to CW or CCW (hUVEC cells; drug 1 μm): 4 | CCW: counter-clockwise alignment (hUVEC cells; drug 2 μm): 0 | CW: clockwise alignment (hUVEC cells; drug 2 μm): 1 | N/S: not significantly biased to CW or CCW (hUVEC cells; drug 2 μm): 7

C[C@@H](N)[C@H]1CC[C@H](C(=O)Nc2ccncc2)CC1 [Y-27632]
effect on left-right asymmetry (C2C12 cells): did not affect left-right asymmetry

O=S(=O)(c1cccc2c(I)cccc12)N1CCCNCC1 [ML-7]
effect on left-right asymmetry (C2C12 cells): did not affect left-right asymmetry

Cc1ccc2c(c1)C(=O)C1(O)CCN(c3ccccc3)C1=N2 (stereo not shown) [Blebbistatin]
effect on left-right asymmetry (C2C12 cells): did not affect left-right asymmetry
